{"source": "paper PMC10961089", "about": "“Epidermal growth factor receptor inhibition potentiates chemotherapeutics‐mediated sensitization of metastatic breast cancer stem cells” (Cancer Reports, 2024)", "assay_type_in_all_cases": "cell-based, human", "key": {"[1]": {"test_system": "CD24^−/CD44^+‐breast CSCs", "assay": "Mammosphere forming efficiency, sorted cells", "conditions": "doxorubicin 0.01 μM + 1e", "method": "(§1) TNBC cell lines—MDA‐MB‐231, MDA‐MB‐468, or the sorted CD24^+‐breast cancer cells, and CD24^−/CD44^+‐breast CSC populations from MDA‐MB‐231 [6] were seeded at a 1 × 10^4 cells/well density in mammosphere‐specific medium—Medium‐171 (Gibco, USA), supplemented with mammary epithelial growth supplement (MEGS) and B‐27 (Life technologies, Auckland, New Zealand) as described previously.[6], [26] TNBC cells or the sorted breast cancer cells and CSCs were plated onto poly‐hydroxyethyl methacrylate (Sigma‐Aldrich, USA) coated 24‐well plates and subjected to treatment with DMSO (Vehicle), Doxorubicin (0.01 and 0.1 μM) alone or with the potential EGFR inhibitors (compounds—1c, 1e, 1g, 1h, 1j, and 1k (5 μM) based on their low IC50 values) or a commercial EGFR inhibitor, PD153035 (10 μM). The suspension cultures were incubated under 5% CO2, at 37°C in a humidified atmosphere for 7 days. At the end of the treatment period, the images of mammospheres were taken at 10× magnification using a microscope (Olympus IX71, Tokyo, Japan). The size of spheres was measured using ImageJ software (NIH, Bethesda, MD, USA)."}, "[2]": {"test_system": "CD24^+‐breast cancer cells", "assay": "Mammosphere forming efficiency, sorted cells", "conditions": "doxorubicin 0.01 μM + 1e", "method": "as §1"}, "[3]": {"test_system": "Bax and Cytochrome‐C in MDA‐MB‐231 cells", "assay": "Gene expression of apoptotic genes, semi-quantitative RT-PCR", "conditions": "MDA-MB-231, doxorubicin + compound 5 μM, 24 h", "method": "Briefly, the cells were incubated at 37°C with serum starvation followed by culturing as described above. […] Briefly, the template RNA (1 μg) was utilized for cDNA synthesis using a First‐strand cDNA synthesis kit (Thermo Scientific, USA) according to the manufacturer's protocol. Thermal cycler (Mastercycler® nexus, Eppendorf) was used for the amplification of the expression of apoptotic genes—Bax, Bcl2, Cytochrome‐C, and target gene EGFR with the help of Dream Taq DNA Polymerase PCR Master Mix (Thermo Scientific, USA) along with human gene‐specific forward and reverse primer sequences of the apoptotic genes and EGFR (Table ST1). The expression of the target genes was normalized to the Eukaryotic 18S rRNA."}, "[4]": {"test_system": "CD24^−/CD44^+‐breast CSC population sorted from MDA‐MB‐231", "assay": "MTT assay in sorted breast CSC population", "conditions": "doxorubicin 0.01 μM + 1e 5 μM vs doxorubicin 0.01 μM alone", "method": "To evaluate the cytotoxicity profile of the potential EGFR inhibitors (compounds) against TNBC cell lines—MDA‐MB‐231, MDA‐MB‐468, and control cell line HEK293, cells were seeded at a cell density of 5 × 10^3 cells/well in complete medium onto 96‐well plates. Here, the non‐tumoral human embryonic kidney (HEK293) epithelial cells have been utilized as a control cell line to compare the IC50 values of the compounds between cancerous and non‐cancerous cell lines with a big therapeutic window. The use of HEK293 cells as compared to other non‐cancerous cell lines are easy to maintain in culture and the results obtained from HEK293 are highly reproducible and consistent.[27] Briefly, the cells were incubated at 37°C for 12 h to attain morphology. After 12 h, cells were serum starved by replacing the complete media with media containing 2% FBS to synchronize the cells. […] All the experiments were performed thrice and the IC50 values of the compounds and Doxorubicin were calculated using GraphPad Prism software version 9 (San Diego, CA, USA). Similarly, the percent inhibition of the sorted cell populations by chemotherapeutic drug, doxorubicin in the absence/presence of potent compound 1e or standard EGFR inhibitor, PD153035 was evaluated utilizing GraphPad Prism Version 9 (San Diego, CA, USA)."}, "[5]": {"test_system": "CD24^+‐breast cancer cells", "assay": "Cell migration (chemotaxis), Boyden-Chamber assay, sorted cells", "conditions": "Doxorubicin 0.01 μM + 1e 5 μM vs 10% FBS", "method": "(§2) TNBC cell lines—MDA‐MB‐231, MDA‐MB‐468, and the sorted CD24^+‐breast cancer cells, and CD24^−/CD44^+‐breast CSC populations from MDA‐MB‐231 [6] were seeded at a density of 1 × 10^6 cells/well to evaluate their migratory potential by Boyden‐Chamber assay. […] At the end of the treatment period, the cells were plated at a density of 5 × 10^3 cells/well in the upper chamber of the Boyden chamber assembly and 10% FBS in the lower chamber was used as a chemoattractant. Separately, the cells in the upper chamber were treated with Doxorubicin (0.01–0.1 μM) alone or with the potential EGFR inhibitors (compounds—1c, 1e, 1g, 1h, 1j, and 1k (5 μM) based on their low IC50 values) or a commercial EGFR inhibitor, PD153035 (10 μM) and incubated for 4 h followed by fixation and staining as described previously.[28], [29]"}, "[6]": {"test_system": "CD24^−/CD44^+‐breast CSC populations", "assay": "Cell migration (chemotaxis), Boyden-Chamber assay, sorted cells", "conditions": "sorted CD24^−/CD44^+ CSCs; Doxorubicin 0.01 μM + 1e 5 μM vs 10% FBS", "method": "as §2"}, "MDA‐MB‐231": {"test_system": "MDA‐MB‐231", "assay": "Cell migration (chemotaxis), Boyden-Chamber assay", "conditions": "Doxorubicin 0.01 μM + compound 5 μM (PD153035 10 μM) vs 10% FBS and Doxorubicin alone", "method": "as §2"}, "MDA‐MB‐468": {"test_system": "MDA‐MB‐468", "assay": "Cell migration (chemotaxis), Boyden-Chamber assay", "conditions": "Doxorubicin 0.01 μM + compound 5 μM (PD153035 10 μM) vs 10% FBS and Doxorubicin alone", "method": "as §2"}}}
{"smiles": "c1cncc(C(c2c[nH]c3ccccc23)c2c[nH]c3ccccc23)c1", "note": "[1e]", "values": [{"measurement": "mammosphere forming efficiency", "setting": "[1]", "result": "significant decrease"}, {"measurement": "mammosphere forming efficiency", "setting": "[2]", "result": "significant decrease"}, {"measurement": "expression of pro‐apoptotic genes Bax and Cytochrome‐C", "setting": "[3]", "result": "marked increase"}, {"measurement": "increase of percent inhibition of cell proliferation versus doxorubicin alone", "setting": "[4]", "result": 6.1, "unit": "folds"}, {"measurement": "migratory potential", "setting": "[5]", "result": "significantly reduced"}, {"measurement": "migratory potential", "setting": "[6]", "result": "significantly reduced"}, {"measurement": "migratory potential", "setting": "MDA‐MB‐231", "result": "significant decrease"}, {"measurement": "migratory potential", "setting": "MDA‐MB‐468", "result": "significant decrease"}]}
